According to ChEMBL document CHEMBL4823298, “In vitro anti-Leishmania activity and molecular docking of spiro-acridine compounds as potential multitarget agents against Leishmania infantum” (Bioorg Med Chem Lett, 2021):
≈ marks a conversion by molar mass, not a printed value.

Tests used:
Leishmania infantum [1] = test: Antileishmanial activity against axenic amastigote stage of Leishmania infantum assessed as reduction in parasite growth at 0.7812 ug/ml; type: functional
[2] = Selectivity index, ratio of CC50 for PBMC (unknown origin) to EC50 for anti-leishmanial activity against axenic amastigote stage of Leishmania infantum; type: toxicity; conditions: read-out: Ratio CC50/EC50
Leishmania infantum [3] = test: Antileishmanial activity against promastigote form of Leishmania infantum assessed as inhibition of parasite growth; type: functional, organism-based
[4] = Cytotoxicity against human erythrocytes; type: cell-based, Erythrocyte
Leishmania infantum [5] = test: Antileishmanial activity against axenic amastigote stage of Leishmania infantum assessed as reduction in parasite growth; type: functional, organism-based
Leishmania infantum [6] = test: Antileishmanial activity against axenic amastigote stage of Leishmania infantum assessed as reduction in parasite growth at 6.25 to 12.5 ug/ml; type: functional; conditions: dose 6.25-12.5 µg/ml; at 6.25 to 12.5 µg/mL
[7] = Cytotoxicity against PBMC (unknown origin)
[8] = Inhibition of Leishmania donovani Topoisomerase 1
[9] = Inhibition of Leishmania Trypanothione reductase

| SMILES | IC50 (Leishmania infantum [3]) [µg/mL] | HC50 [4] [µg/mL] | further results |
| --- | --- | --- | --- |
| N#CC1=CC2(c3ccccc3Nc3ccccc32)N(/N=C\c2ccccc2)C1=O | 2.04 (≈ 5.42 µM) | > 400 | inhibition at 0.7812 µg/mL (Leishmania infantum [1]): 21.7%; selectivity ratio [2]: 8.9; EC50 (Leishmania infantum [5]): 4.96 µg/mL (≈ 13.2 µM); inhibition (INH) (Leishmania infantum [6]): 65%; CC50 [7]: 44.2 µg/mL (≈ 117 µM) |
| N#CC1=CC2(c3ccccc3Nc3ccccc32)N(/N=C\c2ccc(F)cc2)C1=O | 4.11 (≈ 10.4 µM) | > 400 | – |
| C[C@@H]1[C@H](O)[C@@H](C)/C=C/C=C/C=C/C=C/C=C/C=C/C=C/[C@H](O[C@@H]2O[C@H](C)[C@@H](O)[C@H](N)[C@@H]2O)C[C@@H]2O[C@](O)(C[C@@H](O)C[C@@H](O)[C@H](O)CC[C@@H](O)C[C@@H](O)CC(=O)O[C@H]1C)C[C@H](O)[C@H]2C(=O)O [AMPHOTERICIN B] | 0.9 (≈ 0.974 µM) | – | selectivity ratio [2]: 4.78; EC50 (Leishmania infantum [5]): 1.6 µg/mL (≈ 1.73 µM); CC50 [7]: 7.63 µg/mL (≈ 8.26 µM) |
| CC[C@@]1(O)C(=O)OCc2c1cc1n(c2=O)Cc2cc3ccccc3nc2-1 [CAMPTOTHECIN] | – | – | EC50 [8]: 0.7 µM |
| N#CC1=CC2(c3ccccc3Nc3ccccc32)N(/N=C\c2c(Cl)cccc2Cl)C1=O | 2.63 (≈ 5.91 µM) | > 400 | – |
| N#CC1=CC2(c3ccccc3Nc3ccccc32)N(/N=C\c2ccccc2[N+](=O)[O-])C1=O | 3.78 (≈ 8.97 µM) | > 400 | – |
| CCOc1cc(/C=N\N2C(=O)C(C#N)=CC23c2ccccc2Nc2ccccc23)ccc1O | 6.06 (≈ 13.9 µM) | > 400 | – |
| N#CC1=CC2(c3ccccc3Nc3ccccc32)N(/N=C\c2ccc(Cl)cc2)C1=O | 5.68 (≈ 13.8 µM) | > 400 | – |
| CN(C)CCCN1c2ccccc2CCc2ccc(Cl)cc21 [CLOMIPRAMINE] | – | – | IC50 [9]: 3.8 µM |
| CCN(CC)CCCC(C)Nc1c2ccc(Cl)cc2nc2ccc(OC)cc12 (stereo unspecified) [QUINACRINE] | – | – | IC50 [9]: 19 µM |
| N#CC1=CC2(c3ccccc3Nc3ccccc32)N(/N=C\c2ccc([N+](=O)[O-])cc2)C1=O | 5.33 (≈ 12.7 µM) | > 400 | – |
| OCCN1CCN(CCCN2c3ccccc3Sc3ccc(Cl)cc32)CC1 [PERPHENAZINE] | – | – | IC50 [9]: 4.88 µM |
| N#CC1=CC2(c3ccccc3Nc3ccccc32)N(/N=C\c2ccc(Cl)cc2Cl)C1=O | 3.89 (≈ 8.74 µM) | > 400 | – |
| CN(C)c1ccc(/C=N\N2C(=O)C(C#N)=CC23c2ccccc2Nc2ccccc23)cc1 | 1.11 (≈ 2.64 µM) | > 400 | inhibition at 0.7812 µg/mL (Leishmania infantum [1]): 33.2%; selectivity ratio [2]: > 103; EC50 (Leishmania infantum [5]): 0.974 µg/mL (≈ 2.32 µM); inhibition (INH) (Leishmania infantum [6]): 65%; CC50 [7]: > 100 µg/mL |
